Laboratory results taken from ChEMBL document CHEMBL3885861, “Open TG-GATES”.

Species: Rattus norvegicus
Assay: Open TG-GATES - Regimen: Single
Type: toxicity, organism-based, Sprague-Dawley
Design: regimen Single, gender Male, age 6 weeks
Settings: in vivo, po, 0 mg/kg, route gavage, dose level Control; for APTT / Bas / Eos / Fbg / Hb / Ht / Lym / MCH / MCHC / MCV / Mono / Neu / PT / Plat / RBC / Ret / WBC: tissue Blood; for KIDNEY_L / KIDNEY_R / KIDNEY_TOTAL: tissue Kidney; for LIVER: tissue Liver; for A/G / ALP / ALT / AST / BUN / CRE / Ca / Cl / DBIL / GLC / IP / K / LDH / Na / PL / RALB / TBIL / TC / TG / TP / gamma-GTP: tissue Plasma

Cc1cccc(C)c1OCC(C)N (configuration not stated) [MEXILETINE]
TERMINAL_BW (3 h): 222.3 g | APTT (3 h): 22.2 s | Bas (3 h): 0% | Eos (3 h): 0.8% | Fbg (3 h): 310.6 mg/dL | Hb (3 h): 12.8 g/dL | Ht (3 h): 39.4% | Lym (3 h): 80.6% | MCH (3 h): 21 pg | MCHC (3 h): 32.4% | MCV (3 h): 64.8 fL | Mono (3 h): 1.8% | Neu (3 h): 16.2% | PT (3 h): 16.1 s | Plat (3 h): 107.7 x10_4/uL | RBC (3 h): 608.6 x10_4/ul | Ret (3 h): 8.8% | WBC (3 h): 96.5 x10_2/uL | KIDNEY_L (3 h): 0.9 g | KIDNEY_R (3 h): 0.9 g | KIDNEY_TOTAL (3 h): 1.9 g | LIVER (3 h): 10.2 g | A/G (3 h): 1.2 | ALP (3 h): 1498 IU/L | ALT (3 h): 45.2 IU/L | AST (3 h): 77.4 IU/L | BUN (3 h): 13.6 mg/dL | CRE (3 h): 0.2 mg/dL | Ca (3 h): 10.6 mg/dL | Cl (3 h): 107 meq/L | DBIL (3 h): 0 mg/dL | GLC (3 h): 192 mg/dL | IP (3 h): 8.5 mg/dL | K (3 h): 4 meq/L | LDH (3 h): 181.2 IU/L | Na (3 h): 142 meq/L | PL (3 h): 132.4 mg/dL | RALB (3 h): 3 g/dL | TBIL (3 h): 0.016 mg/dL | TC (3 h): 77 mg/dL | TG (3 h): 62.8 mg/dL | TP (3 h): 5.5 g/dL | gamma-GTP (3 h): 1.6 IU/L | TERMINAL_BW (6 h): 218.2 g | APTT (6 h): 22.4 s | Bas (6 h): 0% | Eos (6 h): 0.8% | Fbg (6 h): 305.2 mg/dL | Hb (6 h): 12.9 g/dL | Ht (6 h): 39.5% | Lym (6 h): 78.4% | MCH (6 h): 20.6 pg | MCHC (6 h): 32.7% | MCV (6 h): 63.1 fL | Mono (6 h): 2.8% | Neu (6 h): 17.2% | PT (6 h): 16 s | Plat (6 h): 113.7 x10_4/uL | RBC (6 h): 627.6 x10_4/ul | Ret (6 h): 7.8% | WBC (6 h): 112.2 x10_2/uL | KIDNEY_L (6 h): 1 g | KIDNEY_R (6 h): 1 g | KIDNEY_TOTAL (6 h): 2 g | LIVER (6 h): 9.4 g | A/G (6 h): 1.3 | ALP (6 h): 1119.6 IU/L | ALT (6 h): 37.4 IU/L | AST (6 h): 70.2 IU/L | BUN (6 h): 10.4 mg/dL | CRE (6 h): 0.2 mg/dL | Ca (6 h): 10.5 mg/dL | Cl (6 h): 105.2 meq/L | DBIL (6 h): 0 mg/dL | GLC (6 h): 192.4 mg/dL | IP (6 h): 9.2 mg/dL | K (6 h): 4.2 meq/L | LDH (6 h): 187.6 IU/L | Na (6 h): 140.6 meq/L | PL (6 h): 125 mg/dL | RALB (6 h): 3 g/dL | TBIL (6 h): 0.028 mg/dL | TC (6 h): 72 mg/dL | TG (6 h): 66.2 mg/dL | TP (6 h): 5.4 g/dL | gamma-GTP (6 h): 1.4 IU/L | TERMINAL_BW (9 h): 213.9 g | APTT (9 h): 22.8 s | Bas (9 h): 0% | Eos (9 h): 0.8% | Fbg (9 h): 311 mg/dL | Hb (9 h): 12.9 g/dL | Ht (9 h): 40.1% | Lym (9 h): 77.2% | MCH (9 h): 20.7 pg | MCHC (9 h): 32.2% | MCV (9 h): 64.1 fL | Mono (9 h): 2.4% | Neu (9 h): 19.6% | PT (9 h): 16.2 s | Plat (9 h): 105.6 x10_4/uL | RBC (9 h): 625.4 x10_4/ul | Ret (9 h): 8% | WBC (9 h): 86.8 x10_2/uL | KIDNEY_L (9 h): 0.9 g | KIDNEY_R (9 h): 0.9 g | KIDNEY_TOTAL (9 h): 1.8 g | LIVER (9 h): 8.7 g | A/G (9 h): 1.3 | ALP (9 h): 1333.8 IU/L | ALT (9 h): 35.6 IU/L | AST (9 h): 66.2 IU/L | BUN (9 h): 12.2 mg/dL | CRE (9 h): 0.2 mg/dL | Ca (9 h): 10.5 mg/dL | Cl (9 h): 105.2 meq/L | DBIL (9 h): 0 mg/dL | GLC (9 h): 188.8 mg/dL | IP (9 h): 9.4 mg/dL | K (9 h): 4.2 meq/L | LDH (9 h): 133.6 IU/L | Na (9 h): 141.6 meq/L | PL (9 h): 122 mg/dL | RALB (9 h): 3 g/dL | TBIL (9 h): 0.02 mg/dL | TC (9 h): 66.2 mg/dL | TG (9 h): 53.2 mg/dL | TP (9 h): 5.5 g/dL | gamma-GTP (9 h): 1 IU/L | TERMINAL_BW (24 h): 223.6 g | APTT (24 h): 20.9 s | Bas (24 h): 0% | Eos (24 h): 1% | Fbg (24 h): 304 mg/dL | Hb (24 h): 13 g/dL | Ht (24 h): 40.2% | Lym (24 h): 78.4% | MCH (24 h): 20.6 pg | MCHC (24 h): 32.3% | MCV (24 h): 63.6 fL | Mono (24 h): 2% | Neu (24 h): 17.6% | PT (24 h): 16.4 s | Plat (24 h): 128.5 x10_4/uL | RBC (24 h): 632.6 x10_4/ul | Ret (24 h): 6.7% | WBC (24 h): 88.8 x10_2/uL | KIDNEY_L (24 h): 1 g | KIDNEY_R (24 h): 1 g | KIDNEY_TOTAL (24 h): 1.9 g | LIVER (24 h): 9.9 g | A/G (24 h): 1.3 | ALP (24 h): 1840.4 IU/L | ALT (24 h): 49.8 IU/L | AST (24 h): 73.8 IU/L | BUN (24 h): 15.6 mg/dL | CRE (24 h): 0.2 mg/dL | Ca (24 h): 10.7 mg/dL | Cl (24 h): 107 meq/L | DBIL (24 h): 0 mg/dL | GLC (24 h): 196.4 mg/dL | IP (24 h): 7.6 mg/dL | K (24 h): 4 meq/L | LDH (24 h): 166 IU/L | Na (24 h): 143.2 meq/L | PL (24 h): 130.6 mg/dL | RALB (24 h): 3.1 g/dL | TBIL (24 h): 0.008 mg/dL | TC (24 h): 70 mg/dL | TG (24 h): 74.6 mg/dL | TP (24 h): 5.6 g/dL | gamma-GTP (24 h): 1.8 IU/L
